Measured values: patent US20250288543A1, “METHODS OF ENHANCING BENEFICIAL SHORT-CHAIN AND MEDIUM-CHAIN FATTY ACIDS PRODUCTION BY GUT MICROBIOME” (Arizona Board of Regents on Behalf of Arizona State …, priority 2024, published 2025)

Experiments:
[1] = mechanism related to vagal afferent; cited from earlier work
human colon microbiome = assay: In vitro bioreactors inoculated with human feces: chain elongation of acetate with ethanol or lactate to butyrate and caproate; assay type: cell-based; conditions: for Methane concentrations: bioreactor headspace, over 7 days, FIG. 4; for Production of MCFAs: pH 6.5 (descending colon), higher concentrations; for SCFA and MCFA production: varied conditions of the large intestine (pH 5.5 and 6.5), FIGS. 6A-6P
Source text: In microbial chain elongation, acetate, an abundant short-chain fatty acid in the colon, is elongated via reverse β-oxidation using a more reduced compound, such as ethanol or lactate to butyrate, caproate, and caprylate (C8). FIG. 1 depicts known microbial pathways for production of butyrate in the human colon. FIG. 2 depicts a proposed pathway for production of butyrate (and caproate). In vitro bioreactors were setup using feces composited from multiple human donors. Gas composition in the bioreactors' headspace was analyzed for H2, CO2, and CH4 using gas chromatography (GC). The concentrations of volatile fatty acids (VFAs), lactate, ethanol, were measured using high performance liquid chromatography (HPLC). 16S rRNA gene from Bacteria and Archaea was sequenced using the PacBio. The ability of the human colon microbiome to carry out chain elongation reactions was probed in bioreactor experiments. Bioreactors consisted of 120 mL glass serum bottles containing 50 mL of reduced anaerobic mineral medium prepared using the Hungate technique. The medium contained the following stock solutions per liter: 10 mL of salts, 1 mL of trace element A, 1 mL of trace element B, and 1 mL of vitamin mix. Sodium sulfide nonahydrate (0.2 mM) and L-cysteine (0.4 mM) were used as reducing agents. The medium was buffered with 15 mM 4-(2-hydroxyethyl)-1-piperazineethanesulfonic acid (HEPES) and 15 mM sodium bicarbonate. The medium pH was adjusted to 5.5 or 6.5 using a 10 N NaOH solution. The medium was bottled using a gas composition of 20% CO2 and 80% N2. The experimental conditions and controls are shown in Table 1 and were tested in triplicate. The tested concentrations of short-chain fatty acids (60 mM acetate, 20 mM propionate, 20 mM butyrate) are within the typical range detected in the human colon. For ethanol and lactate (electron donors in chain elongation), we tested 4 mM, a low but physiological relevant concentration and a high concentration of 40 mM. The high concentration of ethanol (40 mM) was selected based on existing chain elongation literature (Yin et al. 2017; Coma et al. 2016; […], and Buisman 2008; Robles et al. 2021; Joshi et al. 2021) and was strategically employed to enhance the activity of putative chain-elongating microorganisms. […] The slurry was prepared by mixing one-part reduced anaerobic mineral medium and one-part feces from a composite sample containing fecal samples from multiple healthy donors as described in the Supporting Information. In one condition, the fecal slurry was filtered through a 200 μm filter before inoculation. In condition with 60 mM acetate+40 mM ethanol+MCE culture at pH 6.5, a chain elongation culture derived from soil (Joshi et al. 2021) was also inoculated. The pH was measured using 0.5 mL samples using an OrionTM Versa Star ProTM Benchtop pH Meter (Thermo Scientific, Waltham, MA, USA) equipped with an Orion economy series pH electrode. The pH meter was calibrated with Orion pH 4.01, 7.00, and 10.01 standard solutions. Samples for HPLC consisted of 0.5 mL of supernatant from bioreactors filtered through a 0.2 μm PDVF filter (MDI Membrane Technologies, Harrisburg, PA, USA). The concentrations of formate, acetate, propionate, isobutyrate, butyrate, isovalerate, valerate, isocaproate, caproate, heptanoate, lactate, ethanol, butanol, and hexanol were determined using a high-performance liquid chromatograph (HPLC, Agilent, Santa Clara, CA, USA) with a photodiode array detector (DAD) set at 210 nm and a refractive index detector (RID). The HPLC was fitted with an Aminex HPX-87H column 300×7.8 mm (Bio-Rad Laboratories, Hercules, CA, USA) and operated with an eluent of 2.5 mM H2SO4 at a flow rate of 0.6 mL per minute for a duration of 80 minutes. The oven temperature was constant at […]. The calibration range for fatty acids was 0.25-10 mM, and the calibration range for the alcohols was 2.5-50 mM. […]

[2] = rat model of diabetes, hexanoate as sole FA source; cited from earlier work
[3] = physiologically relevant concentration of ethanol and lactate, FIGS. 5A and 5B

Structure (SMILES): CC(=O)O [acetate]
- Efficacy in suppressing food intake (rank order) [1]: butyrate>propionate>acetate

Structure (SMILES): CC(O)C(=O)O (stereo not shown) [lactate]
- Metabolites produced with lactate as the electron donor (human colon microbiome; acetate + lactate, FIG. 3B): metabolic shift was observed towards propionate and butyrate production
- Methane concentrations (human colon microbiome): higher at higher concentrations
- Production of butyrate and other SCFAs via chain elongation (human colon microbiome; pH 5.5 (ascending colon)): a better substrate
- Production of MCFAs (human colon microbiome): significant increase
- Butyrate production via chain elongation (human colon microbiome; [3]): occurred
- SCFA and MCFA production (human colon microbiome): successfully increases

Structure (SMILES): CCO [ethanol]
- Conversion of acetate and ethanol to butyrate and caproate via chain elongation, time of occurrence (human colon microbiome; acetate + ethanol, fecal bioreactors, FIGS. 3A and 3B): within one day
- Chain elongation activity with filtered feces (human colon microbiome; acetate + ethanol, feces filtered to remove larger particles, FIGS. 3C and 3D): did not affect the chain elongation activity
- Methane concentrations (human colon microbiome): higher at higher concentrations
- Production of MCFAs (human colon microbiome): significant increase
- Butyrate production via chain elongation (human colon microbiome; [3]): occurred
- Caproate production (human colon microbiome; [3]): caproate was produced only when ethanol was the electron donor
- SCFA and MCFA production (human colon microbiome): successfully increases

Structure (SMILES): CCCCCC(=O)O [caproic, caproic acid]
- Contractile function of hearts perfused with glucose alone [2]: normalized contractile function

Structure (SMILES): CCC(=O)O [propionate]
- Efficacy in suppressing food intake (rank order) [1]: butyrate>propionate>acetate
